Experiments:
[1] = tested on: experimental edema in the rat by carragen; test: experimental edema in the rat by carragen (Winter method), percentage protection; type: in vivo; details: po, rat
[2] = tested on: mouse; test: hot plate test on the mouse according to Roberts (analgesic activity); type: in vivo; details: 37 mg/kg, oral
Protocol: C--The analgesic activity of the products was tested by two tests considered very significant.
In the hot plate test on the mouse according to Roberts (Roberts E. Simonsen D.G. (1966) Biochem. Pharmac. 15, 1875-) the MTA gives a protection of 50% with an oral dose of 37 mg/kg. An approximately equivalent protection of 58% is obtained with 100 mg/kg of amidopyrine administered orally.

[3] = tested on: platelet aggregation induced by arachidonic acid; test: in vitro platelet aggregation induced by arachidonic acid (AA); type: cell-based
Protocol: (2) "in vitro" tests on platelet aggregation induced by arachidonic acid (AA);
(§1) Blood was withdrawn without stasis, and an anticoagulant (3.8% sodium citrate) was added to give a blood:citrate ratio of 9:1. Plasma rich in platelets and plasma poor in platelets were obtained by centrifuging at ambient temperature.
(§2) The platelet aggregation was estimated using the Born & Cross method (G. V. R. Born and M. J. Cross, J. Physiol., Lond. 168, 178, 1963) on the plasma fraction rich in platelets.
(§3) The aggregating agents were used in the following concentrations:
(§4) ADP (Sigma) 1 μM; collagen (Horn) 5 μml; arachidonic acid 4×10^-4 M.
The capacity of MTA to increase the inhibiting effect of prostacyclin (PGI2) in aggregation induced by AA was also investigated. In FIG. 3, curve 1 relates to the controls, curve 2 to MTA at a concentration of 5×10^-4 M, curve 3 to PGI2 at a concentration of 5×10^-9 M, and curve 4 to a mixture consisting of 5×10^-4 M MTA and 5×10^-9 M PGI2.

[4] = tested on: platelet aggregation induced by ADP; test: platelet aggregation induced by ADP in persons treated with the product ("in vivo" tests); set-up: species or system healthy volunteer subjects; details: 100 mg every 8 hours for 3 days; ADP 1 μM; FIG. 4
Protocol: (§5) (3) "in vitro" tests on platelet aggregation induced by ADP and collagen in persons treated with the new products.
(§6) Three apparently healthy volunteer subjects respectively, and who had not taken any drug for at least 15 days, were submitted to aggregation tests before and after consuming the new products at a dose of 100 mg every 8 hours for 3 days, these tests then being evaluated. The blood sample for the determination of the platelet aggregation was taken 2 hours […] consuming the last dose of product under test.
More precisely, the full-line curves relate to the values obtained with blood samples from untreated patients, whereas the dashed-line curves relate to the values obtained for the same patients treated with MTA.

[5] = tested on: fever induced in the rat by beer yeast; test: fever induced in the rat by beer yeast (antipyretic activity); type: in vivo
Protocol: This was measured for the new products by means of fever induced in the rat by beer yeast (Winder C. V. et al (1961) J. Pharmacol. Exp. Ther. 133, 117).

[6] = tested on: stretching by phenylquinone; test: stretching test by phenylquinone (analgesic activity); type: in vivo; details: 37 mg/kg, oral
[7] = granuloma test in the rat by cotton pellets; type: in vivo; details: in vivo, 9 mg/kg, oral, read-out: TI (granuloma test)
From the text: (§7) In the granuloma test in the rat by cotton pellets (Winter […]. et al (1963) J. Pharm. Exper.

[8] = tested on: granuloma in the rat by cotton pellets; test: granuloma test in the rat by cotton pellets; type: in vivo; details: 9 mg/kg, oral
From the text: as §7

[9] = tested on: sleep induced by pentobarbital in the mouse; test: Morris test, duration of the sleep induced by pentobarbital in the mouse; type: in vivo; details: 20 mg/kg, intramuscular
Protocol: The Morris test was used (Morris R. W. (1966) Arch. int. Pharmacodyn 161, No. 2, 380)
In this test, the MTA increased by 87% the duration of the sleep induced by pentobarbital in the mouse, at an intramuscular dose of 20 mg/kg.

[10] = tested on: platelet aggregation induced by collagen; test: in vitro platelet aggregation induced by collagen (Born & Cross method); type: cell-based
Protocol: (§8) (1) "in vitro" tests on platelet aggregation induced by ADP and collagen, in the presence of the new products;
as §1, §2, §3, §4

[11] = lethal dose in the rat and therapeutical index; details: in vivo
[12] = tested on: pleuritis induced in the rat by carragen; test: pleuritis induced in the rat by carragen (Velo method); type: in vivo; details: 75 mg/kg, oral, rat
[13] = tested on: gastro-intestinal system; test: secondary effects on the gastro-intestinal system at ED50 doses (gastric lesions); type: in vivo, rat; details: rat, in vivo
Protocol: In the same test, the ED50 of indomethacine is 9 mg/kg.

[14] = tested on: platelet aggregation induced by collagen; test: platelet aggregation induced by collagen in persons treated with the product ("in vivo" tests); set-up: species or system healthy volunteer subjects; details: 100 mg every 8 hours for 3 days; collagen 5 μg/ml
Protocol: as §5, §6

[15] = tested on: platelet aggregation induced by ADP; test: in vitro platelet aggregation induced by ADP (Born & Cross method); type: cell-based
Protocol: as §8, §1, §2, §3, §4
Adenosine at a concentration of 1×10^-5 M was used as the antiaggregation activity reference substance.
The results obtained with ADP are shown on the graphs of FIG. 1, in which the abscissa indicates the time in minutes and the ordinate the percentage aggregation.
Curve 1 relates to the controls, curve 2 to the samples treated with 1×10^-5 M adenosine, and curve 3 to the samples treated with 5×10^-4 M MTA.

[16] = tested on: experimental edema in the rat by carragen; test: experimental edema in the rat by carragen (Winter method), percentage protection; type: in vivo; details: im; 23 mg/kg intramuscularly, rat; read-out: Percent protection calculated on edema development
Protocol: ^ (a) signifies that the product was administered intramuscularly.

[17] = acute toxicity, DL50 in the mouse; details: in vivo, po, orally
From the text: The compounds of the present invention are practically free from acute toxicity when administered orally. They are practically free from toxicity at therapeutic doses for any method of administration. The following values are obtained for MTA and MTA sulphoxide: […]

[18] = summary of in vitro and in vivo tests

CSC[C@H]1O[C@@H](n2cnc3c(N)ncnc32)[C@H](O)[C@@H]1O [MTA, 5'-deoxy-5'-methyl-thioadenosine]
inhibition in vivo at 37 mg/kg ([1]; 37 mg/kg orally, read-out: Percent protection calculated on edema development): 50%
ED50 ([1]; administered orally, read-out: ED50 (edema test)): 37 mg/kg
protection in the hot plate test [2]: 50%
platelet aggregation inhibiting effect, AA induced (in words) ([3]; 2.5×10^-4, 5×10^-4 and 10^-3 M, AA 4×10^-4 M, FIG. 2): proportional to its concentration
antiaggregation action alone, AA induced (in words) ([3]; MTA 5×10^-4 M or PGI2 5×10^-9 M, each alone, FIG. 3): ineffective
platelet aggregation induced by ADP "in vivo" (in words) [4]: strongly inhibits platelet aggregation induced by ADP
temperature reduction ([5]; 80 mg/kg, intramuscular): 2.35%
temperature reduction with respect to the controls ([5]; 300 mg/kg, oral, one hour after administration): 4.59%
temperature after lowering (from 38.8° C.) ([5]; 300 mg/kg, oral, one hour after administration, lowering from 38.8° C.): 37.4 °C
protection in the stretching test by phenylquinone [6]: 51%
selectivity ratio [7]: 222
protection in the granuloma test [8]: 30%
increase of the duration of the sleep induced by pentobarbital [9]: 87%
inhibiting power towards platelet aggregation induced by collagen (in words) ([10]; in vitro, collagen printed 5 μml): no inhibiting power towards platelet aggregation induced by collagen which was worthy of note
direct effect on the 2nd aggregation wave (in words) [10, 18]: negligible direct effect on the 2nd aggregation wave
effect on aggregation induced by collagen, overall (in words) [10, 18]: practically no effect on aggregation induced by collagen
selectivity ratio ([11]; edema test in the rat, read-out: therapeutical index (TI)): > 54
LD50 ([11]; rat, route printed "/oa"): 200 mg/kg
protection calculated on the total number of cells present in the exudate [12]: 48.8%
protection calculated on the volume of the exudate [12]: 42.4%
secondary effect on the gastro-intestinal system / gastric lesions [13]: no secondary effect on the gastro-intestinal system
inhibition of platelet aggregation induced by collagen (in words) [14]: not effective in inhibiting platelet aggregation induced by collagen
latency time of platelet aggregation induced by collagen (in words) [14]: lengthens the latency time
effect on primary platelet aggregation due to ADP (in words) ([15]; 5×10^-4 M, ADP 1 μM, in vitro, FIG. 1): strongly reduces primary platelet aggregation due to ADP
effect on 2nd aggregation wave (in words) ([15]; 5×10^-4 M, ADP 1 μM, in vitro, as a consequence of reduced primary aggregation): inhibits the 2nd aggregation wave
effect on the 1st aggregation wave (in words) [15, 18]: inhibits the 1st aggregation wave
inhibition of platelet aggregation induced by ADP, overall (in words) [15, 18]: strongly inhibits platelet aggregation induced by ADP
inhibition in vivo at 23 mg/kg [16]: 50%
LD50 [17]: > 2000 mg/kg

— patent publication US4454122A, “Adenosine derivatives of anti-inflammatory and analgesic activity, and therapeutic compositions which contain them as their active principle” (Bioresearch S.r.l., priority 1982, dated 1984)
